Legend:
Mus musculus [1] = test: Antiobesity activity in high fat diet-induced obese C57BL/6 mouse assessed as reduction in body weight at 50 umol/kg/day for 16 days relative to control; assay type: functional; design: scale not given: the % may be the effect or the level left
Mus musculus [2] = test: Antiobesity activity in high fat diet-induced obese C57BL/6 mouse assessed as reduction in fat mass at 50 umol/kg/day for 16 days relative to control; assay type: functional; design: scale not given: the % may be the effect or the level left
[3] = Toxicity in rat; conditions: in vivo
[4] = Dissociation constant, pKa of compound
[5] = Mitochondrial uncoupling activity in Arabidopsis root cells assessed as inhibition of clathrin-mediated endocytosis by measuring reduction of FM4-64 uptake; assay type: functional, mitochondria, Arabidopsis thaliana, Mitochondria
[6] = Uncoupling activity in rat mitochondria assessed as increase in oxygen consumption by mitochondrial respiration assay; assay type: functional
Mus musculus [7] = test: Anorectic activity in C57Bl/6J mouse assessed as reduction in body weight at 30 umol/kg for 6 consecutive days relative to control; assay type: functional; design: scale not given: the % may be the effect or the level left
Mus musculus [8] = test: Anorectic activity in C57Bl/6J mouse assessed as reduction in fat mass at 30 umol/kg for 6 consecutive days relative to control; assay type: functional; design: scale not given: the % may be the effect or the level left
HL-60 = test: Cytotoxicity against human HL60 cells after 24 to 48 hrs by MTT assay; assay type: cell-based
Mus musculus [9] = test: Antiobesity activity in high fat diet-induced obese C57BL/6J mouse assessed as reduction in body weight at 5 mg/kg, po administered via gavage treated 3 times per week for 6 weeks relative to control; assay type: functional; design: scale not given: the % may be the effect or the level left
Mus musculus [10] = test: Antiobesity activity in high fat diet-induced obese C57BL/6J mouse assessed as reduction in body fat mass at 5 mg/kg, po administered via gavage treated 3 times per week for 6 weeks relative to control; assay type: functional; design: scale not given: the % may be the effect or the level left
[11] = Acute toxicity in C57BL/6J mouse administered via oral gavage; conditions: in vivo
C2C12 = test: Cytotoxicity against mouse C2C12 cells after overnight incubation; assay type: cell-based
[12] = Toxicity in po dosed rat; assay type: organism-based; conditions: in vivo
Liver = test: Mitochondrial uncoupling activity in mouse liver mitochondria assessed as effect on succinoxldase coupled phosphorylation; assay type: functional
in vivo = conditions: mouse
[13] = Toxicity in human assessed as weight loss
[14] = Toxicity in dog; design: species or system Canis lupus familiaris; conditions: in vivo
143B = test: Cytotoxicity against human 143B cells after 24 hrs by LDH release assay; assay type: cell-based
Hepatocyte = test: Cytotoxicity against Sprague-Dawley rat hepatocytes after 24 hrs by MTT assay; assay type: cell-based
HCT-116 = test: Cytotoxicity against human HCT116 cells after 48 hrs by MTT assay; assay type: cell-based; conditions: HCT-116, 48 h
[15] = Acute toxicity in po dosed mouse; assay type: organism-based; conditions: in vivo

CCCCCCCCCCCC[P+](c1ccccc1)(c1ccccc1)c1ccccc1
Activity (Mus musculus [1]): 12%
Activity (Mus musculus [2]): 24%

NCCO.O=C(Nc1ccc([N+](=O)[O-])cc1Cl)c1cc(Cl)ccc1O
LD50 [3]: 500 mg/kg

CC(C)(C)c1cc(Cl)cc(C(=O)Nc2ccc([N+](=O)[O-])cc2Cl)c1O
pKa [4]: 5.8

O=[N+]([O-])c1ccc(NS(=O)(=O)c2ccc(Br)s2)cc1
IC50 [5]: 5000 nM

CCCCOC(=O)c1ccccc1-c1c2cc(C)/c(=N\CC)cc-2oc2cc(NCC)c(C)cc12
EC50 [6]: 1000 nM
pKa [4]: 7.3
Activity (Mus musculus [7]): 19%
Activity (Mus musculus [8]): 20%

O=C(Nc1cc(Cl)cc(Cl)c1)Nc1cc(Cl)cc(Cl)c1
Activity (HL-60): > 25 µM
Activity (Mus musculus [9]): 16%
Activity (Mus musculus [10]): 35%

CCOC(=O)C1=C(C)N=c2s/c(=C/c3cc(Br)c(O)c(Br)c3)c(=O)n2C1c1ccc(Cl)cc1 (configuration not stated)
LD50 [11]: 12.7 mg/kg

O=[N+]([O-])c1ccc(OCc2ccc(OCCCC[P+](c3ccccc3)(c3ccccc3)c3ccccc3)cc2[N+](=O)[O-])c([N+](=O)[O-])c1
Activity (C2C12): > 5 µM

FC(F)(F)c1nc2c(Cl)c(Cl)c(Cl)c(Cl)c2[nH]1
LD50 [12]: 1.6 mg/kg
pKa [4]: 5.04 to 5.6

O=[N+]([O-])c1cc(CCC[P+](c2ccccc2)(c2ccccc2)c2ccccc2)cc([N+](=O)[O-])c1O
pKa [4]: 4.48

N#CC(C#N)=NNc1ccc(OC(F)(F)F)cc1
pKa [4]: 6.2
EC50 (Liver): 40 nM
LD50 (in vivo): 8 mg/kg

O=[N+]([O-])c1ccc(O)c([N+](=O)[O-])c1 [2,4-DINITROPHENOL]
LD [13]: 0.8 to 3 g
LD50 [12]: 30 mg/kg
LD50 [14]: 30 mg/kg
pKa [4]: 4.1

CCCCN1CCCCC1C(=O)Nc1c(C)cccc1C (configuration not stated) [BUPIVACAINE]
LD50 [3]: 4.25 to 12.7 mg/kg
pKa [4]: 8.1

N#CC(C#N)=NNc1cccc(Cl)c1 [CARBONYL CYANIDE M-CHLOROPHENYLHYDRAZONE]
EC50 (Liver): 100 nM

COC1=C(OC)C(=O)C(CCCCCCCCCC[P+](c2ccccc2)(c2ccccc2)c2ccccc2)=C(C)C1=O [MITOQUINONE CATION]
Activity (143B): > 10 µM

CC(C)(C)c1cc(C=C(C#N)C#N)cc(C(C)(C)C)c1O [TYRPHOSTIN A9]
pKa [4]: 6.7
IC50 (Hepatocyte): > 970 nM
IC50 (HCT-116): > 200 nM
LD50 [15]: 29 mg/kg
